From US8268803B2, “5, 6-ring annulated indole derivatives and use thereof” (Merck Sharp & Dohme Corp., priority 2006, dated 2012)
pEC50, pIC50: −log10 of the molar value.

Legend:
[1] = biological target: T1, HCV NS5B polymerase (NS5BΔCT21, from HCV-Con 1 isolate, genotype 1b) (Hepatitis C virus genotype 1b, UniProt Q9WMX2); assay: HCV NS5B Polymerase Inhibition Assay; format: biochemical; conditions: incorporation of radiolabeled CTP, 22° C. for 2 hours
T1 construct: A soluble C-terminal 21-amino acid truncated NS5B enzyme form; polyhistidine (C); made in house; host or cells: Escherichia coli
From the text: A chemically synthesized 75-mer version, designated DCoH75, whose sequence matches the 3′-end of D-RNA, and DCoH75ddC, where the 3′-terminal cytidine of DCoH75 is replaced by dideoxycytidine, were used for assaying the NS5B enzyme activity as described in Ferrari et al., 12th International Symposium on HCV and Related Viruses, P-306 (2005). The sequence of the template RNA was: 5′-UGUGCCGGUCUUUCUGAACGGGAUAUAAACCUGGCCAGCUUCAUCGAACAAGUUGCCGUGUCUAUGACAUAGAUC-3′ (SEQ ID NO: 1). A soluble C-terminal 21-amino acid truncated NS5B enzyme form (NS5BΔCT21, from HCV-Con 1 isolate, genotype 1b, Genbank accession number AJ238799) was produced and purified from Escherichia coli as C-terminal polyhistidine-tagged fusion protein as described in Ferrari et al., J. Virol. 73:1649-1654 (1999). A typical assay contained 20 mM Hepes pH 7.3, 10 mM MgCl2, 60 mM NaCl, 100 μg/ml BSA, 20 units/ml RNasin, 7.5 mM DTT, 0.1 μm ATP/GTP/UTP, 0.026 μM CTP, 0.25 mM GAU, 0.03 μM RNA template, 20 μCi/ml [^33P]-CTP, 2% DMSO, and 30 or 150 nM NS5B enzyme. Reactions were incubated at 22° C. for 2 hours, then stopped by adding 150 mM EDTA, washed in DE81 filter plate in 0.5M di-basic sodium phosphate buffer, pH 7.0, and counted using Packard TopCount after the addition of scintillation cocktail. Polynucleotide synthesis was monitored by the incorporation of radiolabeled CTP. The effect of the Compounds of Formula (I) on the polymerase activity was evaluated by adding various concentrations of a Compound of Formula (I), typically in 10 serial 2-fold dilutions, to the assay mixture. The starting concentrations ranged from 200 μM to 1 μM. An IC50 value for the inhibitor, defined as the compound concentration that provides 50% inhibition of polymerase activity, was determined by fitting the cpm data to the Hill equation Y=100/(1+10^((Log IC50−X)*HillSlope)), where X is the logarithm of compound concentration, and Y is the % inhibition. Ferrari et al., 12th International Symposium on HCV and Related Viruses, P-306 (2005) described in detail this assay procedure. It should be noted that such an assay as described is exemplary and not intended to limit the scope of the invention. The skilled practitioner can appreciate that modifications including but not limited to RNA template, primer, nucleotides, NS5B polymerase form, buffer composition, can be made to develop similar assays that yield the same result for the efficacy of the compounds and compositions described in the invention.
NS5B polymerase inhibition data for selected Compounds of Formula (I) is provided below in Table 2, wherein the compound numbers correspond to the compound numbering set forth in the above specification.

[2] = tested on: HCV replicon cells (replicon RNA level); assay: Cell-Based HCV Replicon Assay; conditions: Hepatitis C virus, 72 h; replicon RNA level by real time PCR (Taqman), cells harvested on day 3
Method: To measure cell-based anti-HCV activity of the a Compound of Formula (I), replicon cells were seeded at 5000 cells/well in 96-well collagen I-coated Nunc plates in the presence of the Compound of Formula (I). Various concentrations of a Compound of Formula (I), typically in 10 serial 2-fold dilutions, were added to the assay mixture, with the starting concentration ranging from 250 μM to 1 μM. The final concentration of DMSO was 0.5%, fetal bovine serum was 5%, in the assay media. Cells were harvested on day 3 by the addition of 1× cell lysis buffer (Ambion cat #8721). The replicon RNA level was measured using real time PCR (Taqman assay). The amplicon was located in 5B. The PCR primers were: 5B.2F, ATGGACAGGCGCCCTGA (SEQ ID NO: 2); 5B.2R, […] (SEQ ID NO: 3); the probe sequence was FAM-labeled CACGCCATGCGCTGCGG (SEQ ID NO: 4). GAPDH RNA was used as endogenous control and was amplified in the same reaction as NS5B (multiplex PCR) using primers and VIC-labeled probe recommended by the manufacturer (PE Applied Biosystem). The real-time RT-PCR reactions were run on ABI PRISM 7900HT Sequence Detection System using the following program: 48° C. for 30 min, 95° C. for 10 min, 40 cycles of 95° C. for 15 sec, 60° C. for 1 min. The ΔCT values (CT5B-CTGAPDH) were plotted against the concentration of test compound and fitted to the sigmoid dose-response model using XLfit4 (MDL). EC50 was defined as the concentration of inhibitor necessary to achieve ΔCT=1 over the projected baseline; EC90 the concentration necessary to achieve ΔCT=3.2 over the baseline. Alternatively, to quantitate the absolute amount of replicon RNA, a standard curve was established by including serially diluted T7 transcripts of replicon RNA in the Taqman assay. All Taqman reagents were from PE Applied Biosystems. Such an assay procedure was described in detail in e.g. Malcolm et al., Antimicrobial Agents and Chemotherapy 50: 1013-1020 (2006).
HCV Replicon assay data for selected Compounds of Formula (I) is provided below in Table 3, wherein the compound numbers correspond to the compound numbering set forth in the above specification. The data is designated as follows: “A” for EC50 values less than 1.0 micromolar (μM), “B” for EC50 values between 1.0 and 5.0 μM and “C” for EC50 values greater than 5.0 μM.

| SMILES | pIC50 [1] | pEC50 [2] |
| --- | --- | --- |
| CS(=O)(=O)NC(=O)c1c(-c2ccc[nH]c2=O)c2cc3c(cc2n1Cc1cccc(OCc2ccccc2)c1)CCC3 [Compound 10] | < 7.00 | – |
| CS(=O)(=O)NC(=O)c1c(-c2ccc[nH]c2=O)c2cc3c(cc2n1Cc1ccc(O)cc1)CCC3 [Compound 2] | > 7.60 | 5.30 to 6.00 |
| CS(=O)(=O)NC(=O)c1c(-c2ccc[nH]c2=O)c2cc3c(cc2n1Cc1cccc(O)c1)CCC3 [Compound 6] | 7.00 to 7.60 | 5.30 to 6.00 |
| CS(=O)(=O)NC(=O)c1c(-c2ccc[nH]c2=O)c2cc3c(cc2n1Cc1ccc(F)cc1F)CCC3 [Compound 5] | 7.00 to 7.60 | 5.30 to 6.00 |
| CS(=O)(=O)NC(=O)c1c(-c2ccc[nH]c2=O)c2cc3c(cc2n1Cc1ccccc1O)CCC3 [Compound 4] | 7.00 to 7.60 | 5.30 to 6.00 |
| CS(=O)(=O)NC(=O)c1c(-c2ccc[nH]c2=O)c2cc3c(cc2n1Cc1ccc(OCc2ccccc2)cc1)CCC3 [Compound 8] | < 7.00 | < 5.30 |
| Nc1cc(Cn2c(C(=O)O)c(-c3ccc[nH]c3=O)c3cc4scnc4cc32)ccn1 [Compound 11] | < 7.00 | – |
| CS(=O)(=O)NC(=O)c1c(-c2ccc[nH]c2=O)c2cc3c(cc2n1Cc1ccccc1OCc1ccccc1)CCC3 [Compound 9] | < 7.00 | < 5.30 |
| O=C(O)c1c(-c2ccc[nH]c2=O)c2cc3c(cc2n1Cc1cc(F)ccc1F)CCC3 [Compound 3] | > 7.60 | 5.30 to 6.00 |
| CS(=O)(=O)NC(=O)c1c(-c2ccc[nH]c2=O)c2cc3c(cc2n1Cc1cc(F)ccc1F)CCC3 [Compound 1] | > 7.60 | > 6.00 |
| CS(=O)(=O)NC(=O)c1c(-c2ccc[nH]c2=O)c2cc3scnc3cc2n1Cc1ccnc(N)c1 [Compound 12] | < 7.00 | < 5.30 |
